From US9655887B2, “Pharmaceutical composition and the use thereof, and application regime of said pharmaceutical composition for on-demand contraception” (BAYER PHARMA AKTIENGESELLSCHAFT, priority 2013, dated 2017)

Target: EP2 subtype of the human PGE2 receptor (hEP2 receptor) (Homo sapiens, UniProt P43116)
Assay: cAMP antagonism test, human prostaglandin E2 (subtype EP2) receptor signal
Type: cell-based
Description: 1. Detection of Antagonism to the Human Prostaglandin E2 (Subtype EP2) Receptor Signal
The binding of PGE2 to the EP2 subtype of the human PGE2 receptor induces the activation of membrane-located adenylate cyclases and leads to the formation of cAMP. In the presence of the phosphodiesterase inhibitor IBMX, the cAMP accumulated owing to this stimulation and released by cell lysis is used in a competitive detection method. In this test, the cAMP present in the lysate competes with a fluorescence-labelled cAMP (cAMP-d2) for binding to an Eu cryptate-labelled anti-cAMP antibody.
In the absence of cellular cAMP, a maximal signal is produced, which is attributable to the binding of this cAMP-d2 molecule to the antibody. After excitation of the […] at 337 nm, there is a fluorescence resonance energy transfer (FRET) to the Eu cryptate molecules of the anti-cAMP antibody (labelled therewith), followed by a long-lasting emission signal at 665 nm (and at […]). Both signals are measured in a suitable measurement instrument with a time delay, i.e. after decay of the background fluorescence. Any increase in the low FRET signal caused by prostaglandin E2 administration (measured as well ratio change=emission665nm/emission620nm*10000) indicates the action of antagonists.
1.2.1. Test for Antagonism (Data Per Well of a 384-Well Plate):
To a test plate with the substance solutions already added (0.05 μl; 100% DMSO, concentration range from 0.8 nM-16.5 nM) were added 4 μl of a cAMP-d2/cell suspension (625000 cells/ml). After a 20-minute preincubation at room temperature (RT), 2 μl of a 3×PGE2 solution (1.5 nM, in PBS-IBMX) were added and incubated in the presence of the agonist for a further 60 mins at RT (volume: […]). Next the reaction was stopped by addition of 2 μl of lysis buffer and incubated for a further 20 mins at RT before the actual measurement (volume: ˜8 μl).

Sequence of EP2 subtype of the human PGE2 receptor (hEP2 receptor) (P43116 whole entry): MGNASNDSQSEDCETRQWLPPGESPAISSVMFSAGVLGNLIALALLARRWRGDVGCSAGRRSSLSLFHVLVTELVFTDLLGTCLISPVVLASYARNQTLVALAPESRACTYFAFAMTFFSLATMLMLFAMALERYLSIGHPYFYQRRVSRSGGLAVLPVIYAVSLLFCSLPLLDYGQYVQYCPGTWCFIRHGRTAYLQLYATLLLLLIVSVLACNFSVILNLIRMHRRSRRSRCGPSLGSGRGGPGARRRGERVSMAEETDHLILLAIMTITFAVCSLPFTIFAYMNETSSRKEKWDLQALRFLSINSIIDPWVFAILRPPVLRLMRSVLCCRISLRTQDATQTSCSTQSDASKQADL

IC50, > 50 nM:
COCCNC(=O)c1ccc2nn(CC3CCN(C(=O)c4ccc(Oc5nccc(C(F)(F)F)n5)cc4)CC3)cc2c1C [Example E163, N-(2-methoxyethyl)-4-methyl-2-{[1-(4-{[4-(trifluoromethyl)pyrimidin-2-yl]oxy}-benzoyl)piperidin-4-yl]methyl}-2H-indazole-5-carboxamide]
COCCNC(=O)c1ccc2nn(CC3CCN(C(=O)c4ccc(-c5ccccc5)c(F)c4)CC3)cc2c1C [Example E47, 2-({1-[(2-fluorobiphenyl-4-yl)carbonyl]piperidin-4-yl}methyl)-N-(2-methoxyethyl)-4-methyl-2H-indazole-5-carboxamide]
Cc1c(C(=O)NCCOC(F)(F)F)ccc2nn(CC3CCN(C(=O)c4ccc(Oc5ccc(F)cc5)cc4)CC3)cc12 [Example E78, 2-({1-[4-(4-fluorophenoxy)benzoyl]piperidin-4-yl}methyl)-4-methyl-N-[2-(trifluoro-methoxy)ethyl]-2H-indazole-5-carboxamide]
COCCNC(=O)c1ccc2nn(CC3CCN(C(=O)c4ccc(Oc5ccccn5)cc4)CC3)cc2c1C [Example E162, N-(2-methoxyethyl)-4-methyl-2-({1-[4-(pyridin-2-yloxy)benzoyl]piperidin-4-yl}methyl)-2H-indazole-5-carboxamide]
COCCNC(=O)c1ccc2nn(CC3CCN(C(=O)c4ccc(Oc5ccc(Cl)cn5)cc4)CC3)cc2c1C [Example E170, 2-[(1-{4-[(5-chloropyridin-2-yl)oxy]benzoyl}piperidin-4-yl)methyl]-N-(2-methoxy-ethyl)-4-methyl-2H-indazole-5-carboxamide]
Cc1c(C(=O)NCCOCC(F)(F)F)ccc2nn(CC3CCN(C(=O)c4ccc(C5CC5)cc4)CC3)cc12 [Example E70, 2-{[1-(4-cyclopropylbenzoyl)piperidin-4-yl]methyl}-4-methyl-N-[2-(2,2,2-trifluoro-ethoxy)ethyl]-2H-indazole-5-carboxamide]
COCCNC(=O)c1ccc2nn(CC3CCN(C(=O)c4ccc(-c5ccc(F)cc5OC)cc4)CC3)cc2c1C [Example E193, 2-({1-[(4′-fluoro-2′-methoxybiphenyl-4-yl)carbonyl]piperidin-4-yl}methyl)-N-(2-methoxyethyl)-4-methyl-2H-indazole-5-carboxamide]
Cc1c(C(=O)NCCOC(C)C)ccc2nn(CC3CCN(C(=O)c4ccc(C5CC5)cc4)CC3)cc12 [Example E76, 2-{[1-(4-cyclopropylbenzoyl)piperidin-4-yl]methyl}-N-(2-isopropoxyethyl)-4-methyl-2H-indazole-5-carboxamide]
COCCNC(=O)c1ccc2nn(CC3CCN(C(=O)c4ccc(S(=O)(=O)C(F)(F)F)cc4)CC3)cc2c1C [Example E24, N-(2-methoxyethyl)-4-methyl-2-[(1-{4-[(trifluoromethyl)sulphonyl]benzoyl}piperidin-4-yl)methyl]-2H-indazole-5-carboxamide]
COCCNC(=O)c1ccc2nn(CC3CCN(C(=O)c4ccc(Oc5ccc(F)c(F)c5)cc4)CC3)cc2c1C [Example E172, 2-({1-[4-(3,4-difluorophenoxy)benzoyl]piperidin-4-yl}methyl)-N-(2-methoxyethyl)-4-methyl-2H-indazole-5-carboxamide]
COCCNC(=O)c1ccc2nn(CC3CCN(C(=O)c4ccc(Oc5ccc(Cl)cc5)cc4)CC3)cc2c1C [Example E13, 2-({1-[4-(4-chlorophenoxy)benzoyl]piperidin-4-yl}methyl)-N-(2-methoxyethyl)-4-methyl-2H-indazole-5-carboxamide]
COCCNC(=O)c1ccc2nn(CC3CN(C(=O)c4ccc(C(F)(F)F)c(F)c4)C3)cc2c1C [Example E92, 2-({1-[3-fluoro-4-(trifluoromethyl)benzoyl]azetidin-3-yl}methyl)-N-(2-methoxyethyl)-4-methyl-2H-indazole-5-carboxamide]
COCCNC(=O)c1ccc2nn(CC3CN(C(=O)c4ccc(C(F)(F)F)cc4F)C3)cc2c1C [Example E90, 2-({1-[2-fluoro-4-(trifluoromethyl)benzoyl]azetidin-3-yl}methyl)-N-(2-methoxyethyl)-4-methyl-2H-indazole-5-carboxamide]
COCCNC(=O)c1ccc2nn(CC3CCN(C(=O)c4ccc(C(F)F)cc4)CC3)cc2c1C [Example E30, 2-({1-[4-(difluoromethyl)benzoyl]piperidin-4-yl}methyl)-N-(2-methoxyethyl)-4-methyl-2H-indazole-5-carboxamide]
COCCNC(=O)c1ccc2nn(CC3CN(C(=O)c4ccc(-c5ccc(F)cc5)cc4)C3)cc2c1C [Example E108, 2-({1-[(4′-fluorobiphenyl-4-yl)carbonyl]azetidin-3-yl}methyl)-N-(2-methoxyethyl)-4-methyl-2H-indazole-5-carboxamide]
COCCNC(=O)c1ccc2nn(CC3CCN(C(=O)c4ccc(C)cc4)CC3)cc2c1C [Example E12, N-(2-methoxyethyl)-4-methyl-2-{[1-(4-methylbenzoyl)piperidin-4-yl]methyl}-2H-indazole-5-carboxamide]
COCCNC(=O)c1ccc2nn(CC3CCN(C(=O)c4ccc(-c5ccc(Cl)cc5F)cc4)CC3)cc2c1C [Example E196, 2-({1-[(4′-chloro-2′-fluorobiphenyl-4-yl)carbonyl]piperidin-4-yl}methyl)-N-(2-methoxy-ethyl)-4-methyl-2H-indazole-5-carboxamide]
COCCNC(=O)c1ccc2nn(CC3CCN(C(=O)c4ccc(-c5ccc(F)cc5)cc4)CC3)cc2c1C [Example E5, 2-({1-[(4′-fluorobiphenyl-4-yl)carbonyl]piperidin-4-yl}methyl)-N-(2-methoxyethyl)-4-methyl-2H-indazole-5-carboxamide]
COCCNC(=O)c1ccc2nn(CC3CCN(C(=O)c4ccc(-c5ccc(C(C)(C)O)cc5)cc4)CC3)cc2c1C [Example E201, 2-[(1-{[4′-(2-hydroxypropan-2-yl)biphenyl-4-yl]carbonyl}piperidin-4-yl)methyl]-N-(2-methoxyethyl)-4-methyl-2H-indazole-5-carboxamide]
COCCNC(=O)c1ccc2nn(CC3CCN(C(=O)c4ccc(C(F)(F)F)cc4F)CC3)cc2c1C [Example E10, 2-({1-[2-fluoro-4-(trifluoromethyl)benzoyl]piperidin-4-yl}methyl)-N-(2-methoxyethyl)-4-methyl-2H-indazole-5-carboxamide]
Cc1c(C(=O)NCCOC(C)(C)C)ccc2nn(CC3CCN(C(=O)c4ccc(Oc5ccc(F)cc5)cc4)CC3)cc12 [Example E82, N-(2-tert-butoxyethyl)-2-({1-[4-(4-fluorophenoxy)benzoyl]piperidin-4-yl}methyl)-4-methyl-2H-indazole-5-carboxamide]
Cc1c(C(=O)NCCOCC2CC2)ccc2nn(CC3CN(C(=O)c4ccc(-c5ccc(F)cc5)cc4)C3)cc12 [Example E107, N-[2-(cyclopropylmethoxy)ethyl]-2-({1-[(4′-fluorobiphenyl-4-yl)carbonyl]azetidin-3-yl}methyl)-4-methyl-2H-indazole-5-carboxamide]
